Data published in ChEMBL document CHEMBL1138245, “Discovery of N1-(6-chloroimidazo[2,1-b][1,3]thiazole-5-sulfonyl)tryptamine as a potent, selective, and orally active 5-HT(6) receptor agonist” (J Med Chem, 2007).

Columns and labels:
[1] = target: T1, 5-hydroxytryptamine receptor 6 (Homo sapiens, UniProt P50406); test: Agonist activity at human 5HT6 receptor expressed in HeLa cells assessed as cAMP production; assay type: functional, cell-based
[2] = target: T1, 5-hydroxytryptamine receptor 6; test: Displacement of [3H]LSD from human 5HT6 receptor expressed in HeLa cells; assay type: cell-based
[3] = target: T1, 5-hydroxytryptamine receptor 6; test: Antagonist activity at human 5HT6 receptor expressed in HeLa cells assessed as cAMP production; assay type: functional, cell-based

T1 sequence (P50406 whole entry): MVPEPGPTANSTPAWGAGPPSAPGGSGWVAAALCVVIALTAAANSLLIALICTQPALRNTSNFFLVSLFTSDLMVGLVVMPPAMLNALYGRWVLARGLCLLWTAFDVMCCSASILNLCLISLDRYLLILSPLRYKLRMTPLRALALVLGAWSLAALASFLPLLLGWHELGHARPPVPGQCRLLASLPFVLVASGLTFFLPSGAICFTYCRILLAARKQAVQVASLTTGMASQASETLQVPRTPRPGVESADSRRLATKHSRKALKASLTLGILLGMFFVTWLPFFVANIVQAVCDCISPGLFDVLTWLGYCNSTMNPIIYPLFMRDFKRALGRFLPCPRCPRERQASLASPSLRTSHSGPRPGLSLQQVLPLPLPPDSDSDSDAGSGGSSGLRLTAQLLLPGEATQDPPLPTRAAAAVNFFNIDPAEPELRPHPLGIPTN

| SMILES | EC50 [1] | Emax [1] | Ki [2] | IC50 [3] | Imax [3] |
| --- | --- | --- | --- | --- | --- |
| NCCc1cn(S(=O)(=O)c2ccc(Br)s2)c2ccccc12 | 54 nM | 72% | 7 nM | – | – |
| NCCc1cn(S(=O)(=O)c2ccc(N)cc2)c2ccccc12 | 91 nM | 73% | 1 nM | – | – |
| COc1ccc(S(=O)(=O)n2cc(CCN)c3ccccc32)cc1OC | – | – | 7 nM | 17.5 nM | 80.5% |
| NCCc1cn(S(=O)(=O)c2ccccc2Br)c2ccccc12 | 148 nM | 97.5% | 11 nM | – | – |
| NCCc1cn(S(=O)(=O)c2ccc(Cl)cc2)c2ccccc12 | 174 nM | 93.5% | 10 nM | – | – |
| NCCc1cn(S(=O)(=O)c2ccccc2I)c2ccccc12 | – | – | 16 nM | – | – |
| NCCc1cn(S(=O)(=O)c2ccccc2)c2ccccc12 | 73 nM | 92% | 10 nM | – | – |
| NCCc1cn(S(=O)(=O)c2cccc(Cl)c2)c2ccccc12 | 108 nM | 100% | 6 nM | – | – |
| NCCc1cn(S(=O)(=O)c2ccc(Cl)s2)c2ccccc12 | 181 nM | 100% | 6 nM | – | – |
